Results reported in publication PMC6753678, “Fueling Open Innovation for Malaria Transmission-Blocking Drugs: Hundreds of Molecules Targeting Early Parasite Mosquito Stages” (Frontiers in Microbiology, 2019).
Where two headings read alike, the source gives them in different places.

How the values were obtained:
HepG2 cells [1] = conditions: ref Almela et al 2016, cited from earlier work; for HepG2 cytoxicity (Pf GCT ATP screen): HepG2 value reported with Pf GCT ATP screen
[2] = tested on: P. falciparum late stage (stages IV-V) gametocytes; test: P. falciparum late stage gametocyte ATP depletion assay (Pf GC-ATP); conditions: 1: YES, 0: NO
[3] = tested on: P. falciparum late stage (stages IV-V) gametocytes; parameters: method as in Almela et al 2016; conditions: ref Almela et al 2016, read-out: Pf GCT ATP IC50, cited from earlier work
[4] = tested on: P. berghei ookinete development; conditions: primary screen at 1 μM
HepG2 cells [5] = test: HepG2 cytotoxicity assay; conditions: HepG2 cytotoxicity unified across screens; >25 set to 25.00
Method in brief: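 Percent inhibition derived from fluorescent viability readout, normalised to DMSO (negative) and 50 μM doxorubicin (positive). Compound incubation lasted 48 h at 37°C, 5% CO2, with 2,500 HepG2 cells/well in MEM plus 10% FBS and 1% NEAA.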

[6] = HepG2 data listed with Pf GCT ATP screen
[7] = P. falciparum late stage gametocyte ATP assay
[8] = >10-fold selectivity over cytotoxicity
[9] = P. falciparum late stage gametocyte ATP assay, TCAMS screen

Compound	HepG2 cytoxicity (HepG2 cells [1]; [6]) [µM]	Is compound selective in assay? Pf GC-ATP active? [2]	IC50 [3, 7] [nM]	Is compound selective in assay? Pf GC-ATP active? [2, 8]	IC50 [3, 9] [nM]	Unified cytotox (HepG2 cells [5]) [µM]	also measured
Cc1nn(CC(C)C)c2sc(C(=O)N3CCN(S(=O)(=O)c4ccc(C#N)cc4)CC3)cc12 [TCMDC-125045]	>25	1 (1: YES)	2090	–	–	–	–
COc1cccc(C(=O)NC(C=Cc2ccccc2)c2cc(Cl)c3cccnc3c2O)c1 (stereo not shown) [TCMDC-125550]	>25	1 (1: YES)	590	–	–	–	–
Cc1cc(Nc2ccncc2)n2nc(C)c(-c3ccccc3Cl)c2n1 [TCMDC-124918]	>25	1 (1: YES)	1940	–	–	–	–
CCN(CC)/C(=N/C(=N)NCc1ccc(Cl)cc1)NCCCCCCN/C(=N\C(=N)NCc1ccc(Cl)cc1)N(CC)CC [TCMDC-131817]	>25	1 (1: YES)	790	–	–	–	–
Cc1ccc(C)c(NC(=O)CC2C(=O)N(c3ccccc3)C(=S)N2Cc2ccco2)c1 (stereo not shown) [TCMDC-124000]	–	1 (1: YES)	–	–	–	–	HepG2 cytoxicity (Pf GCT ATP screen) (HepG2 cells [1]): >10 µM; IC50 ([3]; TCAMS library screen): 1300 nM
CN1CCC(N(Cc2ccc(-c3ccc(Cl)cc3)cc2)C(=O)Cn2c(CCc3cccc(F)c3F)cc(=O)c3ccccc32)CC1.O=C(O)C(O)C(O)C(=O)O [TCMDC-141357]	–	–	–	0 (0: NO)	3430	6.70	% inhibition, Replicate A [4]: 22.22%; % inhibition, Replicate B [4]: 55.97%
CCc1nn2c(Nc3ccncc3)cc(C)nc2c1-c1ccccc1 [TCMDC-124917]	>25	1 (1: YES)	1900	–	–	–	–
CCOc1c(CCNCCCCNCCc2ccc3ccccc3c2OCC)ccc2ccccc12.CS(=O)(=O)O [TCMDC-137759]	–	–	–	1 (1: YES)	170	–	HepG2 cytoxicity (HepG2 cells [1]; reported with the Pf GCT ATP screen): <1.56 µM
Cl.N=C(N)NN=Cc1c2ccccc2c(Cl)c2cc(Cl)ccc12 [TCMDC-137903]	–	–	–	0 (0: NO)	2350	7.50	% inhibition, Replicate A [4]: 53.67%; % inhibition, Replicate B [4]: 40.83%
O=C(Nc1nc(-c2ccccn2)cc2ccccc12)c1cccc(Cl)c1 [TCMDC-123886]	–	1 (1: YES)	–	–	–	–	HepG2 cytoxicity (Pf GCT ATP screen) (HepG2 cells [1]): >25 µM; IC50 ([3]; TCAMS library screen): 500 nM
Cc1cc(Nc2ccncc2)n2nc(C)c(-c3ccc(Cl)cc3)c2n1 [TCMDC-124478]	–	1 (1: YES)	–	–	–	–	HepG2 cytoxicity (Pf GCT ATP screen) (HepG2 cells [1]): >50 µM; IC50 ([3]; TCAMS library screen): 910 nM
COc1ccc(NC(=O)C2c3ccccc3C(=O)N(CC(C)C)C2c2cccs2)cc1OC (stereo not shown) [TCMDC-125289]	>25	1 (1: YES)	430	–	–	–	–
CCN(CC)/C(=N\C(=N)NCCCCCCNC(=N)/N=C(\Nc1ccc(Cl)cc1)N(CC)CC)Nc1ccc(Cl)cc1 [TCMDC-131807]	>25	1 (1: YES)	370	–	–	–	–
COC(=O)c1sc(-c2ccc(Cl)cc2)cc1N(CCCN1CCC(N2CCCCC2)CC1)S(=O)(=O)c1ccc(C)cc1 [TCMDC-135561]	–	–	–	0 (0: NO)	3360	4.37	–
CN1CCN(CCCN(Cc2cccc(-c3cccc(CNC4CCCC4)c3)c2)C(=O)/C=C/c2ccccc2)CC1.O=C(O)C(F)(F)F [TCMDC-140543]	–	–	–	0 (0: NO)	800	7.17	–
CC(C)CNCc1cccc(-c2cccc(CN(CCCN3CCN(C)CC3)C(=O)NC3CCCCC3)c2)c1.O=C(O)C(F)(F)F [TCMDC-140633]	–	–	–	0 (0: NO)	1780	16.75	–
COc1ccc2c(c1CNCCCCCCNCc1c(OC)ccc3c1CCCC3)CCCC2 [TCMDC-137817]	–	–	–	0 (0: NO)	420	3.83	–
